IC50 data for 24 compounds are collected here from patent publication US10112929B2, “Lactams as inhibitors of rock” (BRISTOL-MYERS SQUIBB COMPANY, priority 2015, dated 2018).

Counter-ions that a name gives are not always drawn.
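Also: rho kinase enzyme reaction halted with EDTA, phospho- and non-phospho peptide separated for read-out, kinase activity inhibition derived across a dose-response series, DMSO under 2%.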

In the experiment the target is ROCK2 (Homo sapiens (Human), UniProt O75116). Nature of the experiment: biochemical.
Chain of ROCK2 (O75116 whole entry, species assumed): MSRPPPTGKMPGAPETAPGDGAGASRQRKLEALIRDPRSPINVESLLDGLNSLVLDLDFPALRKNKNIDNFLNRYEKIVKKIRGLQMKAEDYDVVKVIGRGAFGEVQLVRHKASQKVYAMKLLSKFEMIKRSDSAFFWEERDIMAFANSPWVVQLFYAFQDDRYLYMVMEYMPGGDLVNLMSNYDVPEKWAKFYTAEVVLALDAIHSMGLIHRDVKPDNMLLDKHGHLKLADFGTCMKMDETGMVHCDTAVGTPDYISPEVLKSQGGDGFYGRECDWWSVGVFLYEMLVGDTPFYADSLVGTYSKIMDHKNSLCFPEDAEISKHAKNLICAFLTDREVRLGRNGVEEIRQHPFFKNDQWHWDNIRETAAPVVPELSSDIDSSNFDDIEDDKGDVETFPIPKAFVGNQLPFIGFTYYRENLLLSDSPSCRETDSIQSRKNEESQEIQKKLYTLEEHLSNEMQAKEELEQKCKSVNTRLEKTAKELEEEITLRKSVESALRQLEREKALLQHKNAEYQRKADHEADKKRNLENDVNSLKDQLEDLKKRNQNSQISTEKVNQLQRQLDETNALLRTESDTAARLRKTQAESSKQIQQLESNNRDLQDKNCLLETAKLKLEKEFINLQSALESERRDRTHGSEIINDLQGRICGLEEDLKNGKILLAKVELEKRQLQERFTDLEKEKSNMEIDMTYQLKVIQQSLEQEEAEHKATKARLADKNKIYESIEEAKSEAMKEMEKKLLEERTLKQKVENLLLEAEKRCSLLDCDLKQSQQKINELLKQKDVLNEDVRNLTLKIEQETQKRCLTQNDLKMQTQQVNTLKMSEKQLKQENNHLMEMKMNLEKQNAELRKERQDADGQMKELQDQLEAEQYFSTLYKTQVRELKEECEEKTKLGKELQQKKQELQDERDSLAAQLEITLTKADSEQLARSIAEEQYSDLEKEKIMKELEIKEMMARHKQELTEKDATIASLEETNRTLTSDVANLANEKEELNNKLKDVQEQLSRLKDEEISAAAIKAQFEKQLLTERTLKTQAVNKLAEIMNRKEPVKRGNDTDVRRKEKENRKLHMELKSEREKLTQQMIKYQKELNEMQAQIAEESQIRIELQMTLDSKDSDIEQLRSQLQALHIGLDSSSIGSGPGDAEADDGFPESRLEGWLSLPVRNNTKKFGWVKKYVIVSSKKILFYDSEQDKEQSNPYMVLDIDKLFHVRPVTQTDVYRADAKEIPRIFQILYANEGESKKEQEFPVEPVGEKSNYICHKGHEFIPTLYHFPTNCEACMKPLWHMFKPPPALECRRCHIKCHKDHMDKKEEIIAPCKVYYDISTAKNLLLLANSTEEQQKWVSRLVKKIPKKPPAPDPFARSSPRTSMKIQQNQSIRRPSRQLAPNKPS
The compound `COc1cc(NC2CCN(c3ccc(-c4cn[nH]c4)cc3)C2=O)ccc1F` (single isomer, unassigned) [Example 18, 1-(4-(1H-pyrazol-4-yl)phenyl)-3-((4-fluoro-3-methoxyphenyl)amino)pyrrolidin-2-one] showed an IC50 of under 10 nM.

With `COc1nc(N2CCC(N3CCCC(C)(C)C3)C2=O)ccc1-c1cn[nH]c1` (racemic) [Example 278, 3-(3,3-dimethylpiperidin-1-yl)-1-(6-methoxy-5-(1H-pyrazol-4-yl)pyridin-2-yl)pyrrolidin-2-one], the IC50 lay in the range of 100 to 2200 nM. In turn, `COc1cccc([C@@H](C)NC2CCN(c3ccc(-c4cn[nH]c4)cc3)C2=O)c1` (stereo partly drawn) [Example 60, 1-(4-(1H-pyrazol-4-yl)phenyl)-3-(((R)-1-(3-methoxyphenyl)ethyl)amino)pyrrolidin-2-one, TFA] displayed an IC50 of 100 to 2200 nM. For `COc1ccc(N2CCN(C3CCN(c4ccc(-c5cn[nH]c5)c(OC)n4)C3=O)CC2)cc1` (racemic) [Example 287, 1-(6-methoxy-5-(1H-pyrazol-4-yl)pyridin-2-yl)-3-(4-(4-methoxyphenyl)piperazin-1-yl)pyrrolidin-2-one dihydrochloride], the IC50 lay within 100 to 2200 nM. With `O=C1C(Nc2cccc(OCC3CC3)c2)CCN1c1ccc(-c2cn[nH]c2)cc1` (single isomer, unassigned) [Example 233, 1-(4-(1H-pyrazol-4-yl)phenyl)-3-((3-(cyclopropylmethoxy)phenyl)amino) pyrrolidin-2-one] the figure was 10 to 100 nM; with `COc1nc(N2CCC(N3CC[C@H](NC(C)=O)C3)C2=O)ccc1-c1cn[nH]c1` (mixture of isomers) [Example 294, N-((3S)-1′-(6-methoxy-5-(1H-pyrazol-4-yl)pyridin-2-yl)-2′-oxo-[1,3′-bipyrrolidin]-3-yl)acetamide], 100 to 2200 nM. For the compound `COc1nc(N2CCC(N3CC(C)OC(C)C3)C2=O)ccc1-c1cn[nH]c1` (racemic) [Example 275, 3-(2,6-dimethylmorpholino)-1-(6-methoxy-5-(1H-pyrazol-4-yl)pyridin-2-yl)pyrrolidin-2-one], the IC50 lay within 100 to 2200 nM. With `COc1cccc2c1N(C1CCN(c3ccc(-c4cn[nH]c4)cc3)C1=O)CC2` (single isomer, unassigned) [Example 52, 1-(4-(1H-pyrazol-4-yl)phenyl)-3-(7-methoxyindolin-1-yl)pyrrolidin-2-one] the figure was 100 to 2200 nM; with `O=C1C(Nc2cccc(OCC3CC3)c2)CCN1c1ccc(-c2cn[nH]c2)c(F)c1` (single isomer, unassigned) [Example 361, 3-((3-(cyclopropylmethoxy)phenyl)amino)-1-(3-fluoro-4-(1H-pyrazol-4-yl)phenyl)pyrrolidin-2-one], under 10 nM; with `Cc1nc(N2CCC(Nc3cccc(OC(F)F)c3)C2=O)ccc1-c1cn[nH]c1` (single isomer, unassigned) [Example 201, 3-((3-(difluoromethoxy)phenyl)amino)-1-(6-methyl-5-(1H-pyrazol-4-yl)pyridin-2-yl)pyrrolidin-2-one], 10 to 100 nM. With `CCc1cc(N2CCC(Nc3ccc(F)c(OC)c3)C2=O)ncc1-c1cn[nH]c1` (single isomer, unassigned) [Example 210, 1-(4-ethyl-5-(1H-pyrazol-4-yl)pyridin-2-yl)-3-((4-fluoro-3-methoxyphenyl)amino) pyrrolidin-2-one] the figure was 100 to 2200 nM. `COc1cc(F)cc(NC2CCN(c3ccc(-c4cn[nH]c4)cn3)C2=O)c1` (single isomer, unassigned) [Example 88, 1-(5-(1H-pyrazol-4-yl)pyridin-2-yl)-3-((3-fluoro-5-methoxyphenyl)amino)pyrrolidin-2-one] came in with an IC50 of under 10 nM. On to `COc1cc(N2CCC(Nc3cccc(OC(F)F)c3)C2=O)ccc1-c1cn[nH]c1` (stereo not drawn) [Example 69, 3-((3-(difluoromethoxy)phenyl)amino)-1-(3-methoxy-4-(1H-pyrazol-4-yl)phenyl)pyrrolidin-2-one], for which the IC50 was in the range of 10 to 100 nM. Compound `COc1cc(N2CCC(Nc3cccc(F)c3OC)C2=O)ccc1-c1cn[nH]c1` (single isomer, unassigned) [Example 151, 3-((3-fluoro-2-methoxyphenyl)amino)-1-(3-methoxy-4-(1H-pyrazol-4-yl)phenyl) pyrrolidin-2-one] returned an IC50 of under 10 nM.

For `COc1cc(F)cc(OC2CCN(c3ccc(-c4cn[nH]c4)cc3)C2=O)c1` (stereo not drawn) [Example 112, 1-(4-(1H-pyrazol-4-yl)phenyl)-3-(3-fluoro-5-methoxyphenoxy)pyrrolidin-2-one], the IC50 was 100 to 2200 nM.

As for `COc1nc(N2CCC(N3CCC(=O)CC3)C2=O)ccc1-c1cn[nH]c1` (racemic) [Example 292, 1-(1-(6-methoxy-5-(1H-pyrazol-4-yl)pyridin-2-yl)-2-oxopyrrolidin-3-yl)piperidin-4-one hydrochloridehydrate], the IC50 was in the range of 10 to 100 nM. `COc1nc(N2CCC(N3CCN(S(C)(=O)=O)CC3)C2=O)ccc1-c1cn[nH]c1` (racemic) [Example 286, 1-(6-methoxy-5-(1H-pyrazol-4-yl)pyridin-2-yl)-3-(4-(methylsulfonyl)piperazin-1-yl)pyrrolidin-2-one] yielded an IC50 of 100 to 2200 nM. Next, `COc1nc(N2CCC(Nc3cccc(S(N)(=O)=O)c3)C2=O)ccc1-c1cn[nH]c1` (racemic) [Example 268, 3-((1-(6-methoxy-5-(1H-pyrazol-4-yl)pyridin-2-yl)-2-oxopyrrolidin-3-yl)amino)benzenesulfonamide]: under 10 nM; `COc1cccc(NC2CCN(c3ccc(-c4cn[nH]c4)c(Cl)c3)C2=O)c1` (single isomer, unassigned) [Example 164, 1-(3-chloro-4-(1H-pyrazo1-4-yl)phenyl)-3 ((3-methoxyphenyl)amino)pyrrolidin-2-one]: under 10 nM; `COc1cccc(NC2CCN(c3ccc(-c4cn[nH]c4)c(C(F)F)c3)C2=O)c1` (single isomer, unassigned) [Example 175, 1-(3-(difluoromethyl)-4-(1H-pyrazol-4-yl)phenyl)-3-((3-methoxyphenyl)amino) pyrrolidin-2-one]: 100 to 2200 nM. Compound `O=C1C(Nc2cccc(OC(F)F)c2)CCN1c1ccc(-c2cn[nH]c2)cc1` (stereo not drawn) [Example 7, 1-(4-(1H-pyrazol-4-yl)phenyl)-3-((3-(difluoromethoxy)phenyl)amino)pyrrolidin-2-one] returned an IC50 of under 10 nM. The compound `COc1nc(N2CCC(N3CC[C@H](F)C3)C2=O)ccc1-c1cn[nH]c1` (mixture of isomers) [Example 290, (3S)-3-fluoro-1′-(6-methoxy-5-(1H-pyrazol-4-yl)pyridin-2-yl)-[l,3′-bipyrrolidin]-2′-one hydrochloride] had a half-inhibitory concentration (IC50) of 100 to 2200 nM. Regarding `COc1cccc(NC2CCN(c3ccc(-c4cn[nH]c4)c(C(F)(F)F)c3)C2=O)c1` (single isomer, unassigned) [Example 367, 1-(4-(1H-pyrazol-4-yl)-3-(trifluoromethyl)phenyl)-3-((3-methoxyphenyl)amino) pyrrolidin-2-one], the IC50 was 100 to 2200 nM. Turning to `O=C1C(Nc2cccc(OCC(F)F)c2)CCN1c1ccc(-c2cn[nH]c2)cc1` (single isomer, unassigned) [Example 237, 1-(4-(1H-pyrazol-4-yl)phenyl)-3-((3-(2,2-difluoroethoxy)phenyl)amino)pyrrolidin-2-one], the IC50 is under 10 nM.

What is called IC50 is the concentration that gives 50% inhibition.
